In patent US5672707A (priority 1991, dated 1997):
Read-outs that look alike come from different tables or passages of the source.

Experiments:
[1] = system: old rats; experiment: Passive avoidance test in old rats; type: in vivo; conditions: for Passive avoidance latency in 7 days after training: old rats (18 month), 20 days application, 1 mg/kg (piracetam 250 mg/kg)
Procedure: (§1) The influence of drugs on reflex conditioning in rats was studied by the passive avoidance test in conditions of 50% acquisition. The effect of the compound was estimated by the increase of the relative number of learned animals with respect to that of control group. […] The other reference drug--noothropic agent piracetam--was given in the dose 250 mg/kg 60 min before training. Amnestic syndrome was stimulated by 20 days application of Sc at the daily dose of 1 mg/kg intraperitoneally. […] The passive avoidance test was performed within 24 hours after the last application of test preparations.
Improvement of animal performance was accompanied by the normalizing of brain synaptosomes microviscosity under the action of all the substances tested. […] The latter observation indicates to the possible interference of amiridine and substance Vo into the processes of atherogenesis in old animals.

[2] = system: rats; experiment: Passive avoidance test on the model of amnestic syndrome (multiple scopolamine injection); type: in vivo
Procedure: The influence of drugs on reflex conditioning in rats was studied by the passive avoidance test in conditions of 50% acquisition. The effect of the compound was estimated by the increase of the relative number of learned animals with respect to that of control group. […] The passive avoidance test was performed within 24 hours after the last application of test preparations.

[3] = system: mice; experiment: Psychotropic activity test: arecoline induced hyperkynesis; type: in vivo; conditions: intraperitoneally, dose 1/20 of LD
[4] = system: brain synaptosomes; experiment: Cholesterol content in brain synaptosomes, old rats; type: in vivo; conditions: for Cholesterol content of brain synaptosomes, old rats: 20 days course; for Cholesterol content in synaptosomes (% from total lipid content): old rats (18 month), 20 days application
[5] = system: membranes of brain synaptosomes; experiment: Microviscosity of brain synaptosome membranes, amnestic syndrome model; type: in vivo, rats; conditions: for Microviscosity changes in % to control: rats, scopolamine 20 days, then drug 10 days, brain synaptosomes
[6] = system: membranes of brain synaptosomes; experiment: Microviscosity of brain synaptosome membranes, old rats; type: in vivo; conditions: old rats (18 month), 20 days application
Procedure: Microviscosity of membranes of brain synaptosomes was studied with the use of molecular probe pirren. Brain tissue homogenization and preparation of synaptosomes were performed by the method of De Robertis.

[7] = system: mice; experiment: Psychotropic activity test: motor activity; type: in vivo; conditions: intraperitoneally, dose 1/20 of LD
[8] = system: mice; experiment: Step-down test, scopolamine induced amnesia; type: in vivo
Procedure: (§2) Psychoneurotropic activity of the declared compounds and their influence on learning and memory were observed using unbred male (18-20 g) mice and 180-200 g) rats, held at standard conditions (room temperature 21°-22° C., 12-hours lighting schedule, food and water ad libitum).

[9] = in vivo; conditions: for LD50: in vivo, ip
Procedure: as §2
Acute toxicity was studied by the method of Kerber with intra peritoneal drug injection.

[10] = system: rats; experiment: Passive avoidance test in normal rats, 50% acquisition; type: in vivo; conditions: for change in vivo at 0.1 mg/kg: Rattus norvegicus, 20 min, read-out: Increase of the number of correct trails (% to control). Passive avoidance test (rats)
Procedure: as §2, §1

[11] = target: T1, Acetylcholinesterase, enzyme from human erythrocytes (Homo sapiens, UniProt P22303); experiment: Acetylcholinesterase inhibition, spectrophotometric technique of Ellman; type: biochemical; conditions: for Acetylcholinesterase inhibition IC50 (M) / IC50: enzyme from human erythrocytes, Table 5; for IC50: Acetylcholinesterase inhibition IC50 (M)
T1 construct: on the enzyme from human erythrocytes; from tissue; host or cells: human erythrocytes
T1 sequence (P22303-2 with tags, fused parts or gaps limits assumed): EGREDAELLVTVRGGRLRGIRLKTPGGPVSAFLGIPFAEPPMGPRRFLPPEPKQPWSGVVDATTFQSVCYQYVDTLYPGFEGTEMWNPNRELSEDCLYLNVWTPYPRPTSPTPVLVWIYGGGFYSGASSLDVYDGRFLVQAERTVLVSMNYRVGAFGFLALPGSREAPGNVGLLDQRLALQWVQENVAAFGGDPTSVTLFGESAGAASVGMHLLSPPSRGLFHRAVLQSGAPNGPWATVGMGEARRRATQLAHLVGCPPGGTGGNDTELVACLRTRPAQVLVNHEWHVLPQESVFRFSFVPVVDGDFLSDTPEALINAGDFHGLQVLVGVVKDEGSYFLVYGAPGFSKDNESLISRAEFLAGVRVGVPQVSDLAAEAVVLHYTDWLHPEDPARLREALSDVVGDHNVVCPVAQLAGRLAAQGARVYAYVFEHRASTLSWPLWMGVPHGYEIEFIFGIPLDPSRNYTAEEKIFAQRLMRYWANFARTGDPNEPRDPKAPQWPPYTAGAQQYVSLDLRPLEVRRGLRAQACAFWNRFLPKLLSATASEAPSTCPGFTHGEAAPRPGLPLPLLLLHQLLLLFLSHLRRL
Procedure: Acetylcholinesterase inhibition under the action of preparations was assessed by the spectrophotometric technique of Ellman on the enzyme from human erythrocytes.

[12] = system: K channels; experiment: Ionic permeabilities of excitable membranes, voltage clamp in the Ranvier node; type: cell-based, frog
[13] = system: rat adipocytes; experiment: Lipid composition of adipocytes after incubation with compounds; type: cell-based; conditions: for FFA/TG in adipocytes / PL/CL in adipocytes / PL/TG in adipocytes: cells, Table 11; for FFAc/FFAm / PLc/PLm: distribution between cells and incubation medium, Table 13
Procedure: (§3) Lipid regulative activity of the declared compounds--derivatives of 9-amino acridine--were evaluated in vitro[…] using rat adipocytes. Adipocytes were separated from adipose tissue of testis appendages of adult male rats. Lipid composition analysis was performed by the method of thin-layer chromatography.
(§4) Quantitative analysis of phospholipids (PL), mono- and diacylglycerides (MDG), triacylglycerides (TG), free fatty acids (FFA), free cholesterol (FCL), and methyl esters of fatty acids (MEFA) was performed by the method of spectrophotometry.

[14] = system: rat adipocytes; experiment: Lipid content in incubation medium after incubation of adipocytes; type: cell-based; conditions: for FFA/TG in incubation medium / PL/CL in incubation medium / PL/TG in incubation medium: Table 12
Procedure: as §3, §4

[15] = rats, scopolamine 1 mg/kg 20 days, then drug 10 days (1 mg/kg; piracetam 250 mg/kg)
[16] = intraperitoneal injection, Table 5, read-out: LD50 (mg/kg) by Kerber
[17] = ip, rats, 0.1 mg/kg i.p. 20 min before training, piracetam 250 mg/kg 60 min before training
[18] = intraperitoneal injection, Table 5
[19] = rats, 0.1 mg/kg i.p. 20 min before training, piracetam 250 mg/kg 60 min before training

SMILES	Passive avoidance latency in 7 days after training [1] [s]	Passive avoidance latency [2, 15] [s]	Increase of duration of arecoline induced hyperkynesis (% to control) [3]	Cholesterol content in synaptosomes (% from total lipid content) [4]	Microviscosity changes in % to control [5]	Microviscosity changes (% to control) [6]	Motor activity increment (% to control) [7]	Antiamnestic activity in Step-down test (% of mice with latency > cut off) [8]	LD50 [9, 16] [mg/kg]	change in vivo at 0.1 mg/kg [10, 17] [%]	IC50 [11] [M]	LD50 (mg/kg) by Kerber [9, 18] [mg/kg]	The shift of activation region of K channels: substance lowest concentrations in M producing measureable shift of 1-2 mV [12]	other results
Nc1c2c(nc3c1CCC3)CCCC2 [Amiridine, amiridine, reference compound]	116.1 ± 16.9	149.0 ± 11.7	100 % to control	33.2 ± 0.8 % from total lipid content	105.0 % to control	101.7 % to control	45 % to control	33 % of mice	52 ± 3.4	70				Cholesterol content of brain synaptosomes, old rats [4]: normalized the cholesterol content of brain synaptosomes; LD50 ([9]; read-out: LD): 35 mg/kg
NC(=O)CN1CCCC1=O [Piracetam, piracetam, reference compound]	120.0 ± 24.3	162.3 ± 13.3	0 % to control				0 % to control		1000					Acetylcholinesterase inhibition IC50 (M) [11]: no effect; change in vivo at 0.1 mg/kg [10]: 63%
CN1[C@@H]2C[C@@H](OC(=O)[C@H](CO)c3ccccc3)C[C@H]1[C@@H]1O[C@@H]12 [Scopolamine (Sc), scopolamine]		70.4 ± 10.5												
Nc1c2c(nc3ccccc13)CCCC2 [Tacrine, tacrine, reference compound]	163.4 ± 16.5		88 % to control	39.7 ± 1.4 % from total lipid content	97.2 % to control	101.4 % to control	0 % to control	33 % of mice	35.5 ± 1.8					Passive avoidance latency ([2]; 1 mg/kg): 169.0 ± 14.8 s; LD50 ([9]; read-out: LD): 52 mg/kg; change in vivo at 0.1 mg/kg ([10]; ip): 25%
Cc1ccc(CNc2c3c(nc4ccccc24)CC(C)(C)CC3O)c(C)c1 (stereo not drawn) [VIi]			46 % to control				13 % to control	0 % of mice			1e-06	75.0 ± 1.2	no effect	Increase of the number of correct trails (% to control). Passive avoidance test (rats) [10, 19]: 15 % to control
Cc1ccc(CNc2c3c(nc4ccccc24)CC(C)(C)CC3O)c(C)c1 (stereo not drawn) [VIj]			13 % to control				55 % to control	0 % of mice			2.5e-06	33.4 ± 3.2	no effect	FFA/TG in adipocytes [13]: 1.08; PL/CL in adipocytes [13]: 0.80; PL/TG in adipocytes [13]: 0.85; FFAc/FFAm [13]: 0.95; PLc/PLm [13]: 1.24; Performance of normal rats in passive avoidance test ([10]; normal rats): statistically significantly improved performance of normal rats; Increase of the number of correct trails (% to control). Passive avoidance test (rats) [10, 19]: 40 % to control; FFA/TG in incubation medium [14]: 1.03; PL/CL in incubation medium [14]: 0.65; PL/TG in incubation medium [14]: 0.62
CC1(C)CC(=O)c2c(nc3ccccc3c2NCc2ccccc2)C1 [Vb]			15 % to control				80 % to control	0 % of mice	735 ± 21.8	25			no effect	AChE inhibition IC (M) ([11]; Table 6): no effect; Acetylcholinesterase inhibition IC50 (M) [11]: no effect
CC1(C)CC(=O)c2c(nc3ccccc3c2NCc2ccc(Cl)cc2)C1 [Vf]			0 % to control				13 % to control	0 % of mice	> 1000	0	8e-05		no effect	
CCCCNc1c2c(nc3ccccc13)CC(C)(C)CC2=O [Vo]														Performance in passive avoidance test, amnestic syndrome ([2]; 10 days application course): improved performance in passive avoidance test in the 10 days application course to the level achieved under the treatment with reference drugs; Microviscosity of brain synaptosomes, amnestic syndrome ([5]; 10 days application course): normalizing of microviscosity of brain synaptosomes; Change of lipid composition in adipocytes [13]: Accumulation of phospholipids in a cell; Content of methyl esters of fatty acids in adipocytes [13]: sharp decreases; PL/TG relations and cell cholesterol level [13]: increase PL/TG relations and decrease cell cholesterol level; Potency of effect on lipid composition of adipocytes [13]: most potent effect on lipid composition of adipocytes; Ejection of triacylglycerides into external medium [14]: enhanced ejection of triacylglycerides into external medium
CCCCNc1c2c(nc3ccccc13)CC(C)(C)CC2=O [Vp]	169.4 ± 10.5	170.3 ± 14.9	0 % to control	30.1 ± 2.4 % from total lipid content	93.8 % to control	97.9 % to control	69 % to control	25 % of mice				200.0 ± 21.9		Performance of old rats in passive avoidance test ([1]; 20 days course, age 18 months): improved performance of old rats (age 18 months) in passive avoidance test more significantly than in 6 month old adult rats; Cholesterol content of brain synaptosomes, old rats [4]: normalized the cholesterol content of brain synaptosomes; Lipid-regulative effect compared with probucol [13]: not inferior; FFA/TG in adipocytes [13]: 1.03; PL/CL in adipocytes [13]: 0.83; PL/TG in adipocytes [13]: 0.89; FFAc/FFAm [13]: 0.93; PLc/PLm [13]: 1.41; Antiamnestic activity in Step-down test [8]: pronounced antiatonestic activity, comparable with that of amiridine and tacrine; change in vivo at 0.1 mg/kg ([10]; ip): 25%; FFA/TG in incubation medium [14]: 0.92; PL/CL in incubation medium [14]: 0.65; PL/TG in incubation medium [14]: 0.52; Capability to induce the shift of potassium permeability voltage dependency [12]: most pronounced capability to induce the shift of potassium permeability voltage dependency
